Read-outs that look alike come from different tables or passages of the source.
Key:
[1] = body weight in MNU mammary cancer study
NB4 cells [2] = assay: retinoid induction of differentiation of NB4 cells (NBT); assay type: cell-based, Human
Experimental: NB4 cells were obtained from Dr. Waxman after he received them from Dr. M. Lanotte. […] The cell were grown at 37° C. in a humidified atmosphere of 5% CO2 in air. Cell density was estimated on an electronic particle counter (Coulter electronic, Hialeah, Fla.) and cell viability with trypan bleu dye exclusion.
(§1) Human leukemia cell line HL-60 and NB4 were used for measuring the ability of retinoids to induce terminal differentiation. Both cell lines are predominantly promyelocytes and are induced by retinoic acid to mature to cells with many characteristics of mature granulocytes. The induction of this differentiation is the basis for assaying one of the biological activities of retinoic acid analogues. For the differentiation assay, HL-60 or NB4 cells were grown in nutrient medium with fetal bovine serum as detailed by Breitman (15).
(§2) The percentage of cells that gained this marker was measured microscopically. The percentage of positive cells was then plotted as a function of the retinoid concentration to determine ED50 and ED30 values used in the formation of isoboles.

[3] = system: MNU-induced mammary cancers; assay: efficacy on MNU-induced mammary cancers; assay type: in vivo, Sprague-Dawley rats; conditions: 200 mg/kg diet
in vivo toxicity = conditions: preliminary data
HL-60 cells = assay: retinoid induction of differentiation of HL-60 cells (NBT); assay type: cell-based; conditions: Homo sapiens, HL-60, 96 h; 4-day induction of differentiation; read-out: ED50 (nM) HL-60
Experimental: as §1, §2

JMML cells = assay: inhibition of JMML spontaneous CFU-GM colony formation; conditions: Homo sapiens
Experimental: Mononuclear cells were separated by density gradient centrifugation, washed, and frozen in aliquots. […] No growth factors or other exogenous stimuli were added to the cultures. UAB retinoids and retinoic acid isomers were dissolved in either 100% ethanol or DMSO. Appropriate dilutions were made, and controls using the respective ethanol or DMSO concentration were set up in parallel. Varying doses of retinoids were added only once, 24 hours after initiation of the soft agar assays, by pipetting the retinoid solution on top of the soft agar and allowing the solution to enter the agar and interact with the cells by diffusion. The cultures were incubated for 14 days at 37° C. in a humidified atmosphere with 5% CO2.

NB4 cells [4] = assay: retinoid metabolism in NB4 cells; assay type: in vitro ADME
[5] = read-out: normalized percent inhibition of CFU-GM colony growth, patient J83 (%)
[6] = read-out: normalized percent inhibition of CFU-GM colony growth, patient J84 (%)

CC(=C/C=C/C(C)=C/C(=O)O)/C=C1\CCCc2ccccc21 [(9Z)-UAB30, (2E,4E,6E,8E)-8-(3',4'-Dihydro-1'(2'H)-naphthalen-1'-ylidene)3,7-dimethyl-2,4,6-octatrienoic acid]
overall body growth ([1]; 200 mg/kg diet): no obvious effect | average body weight/rat ([1]; 43 days of age, 200 mg/kg diet from day 53): 133 grams | average body weight/rat ([1]; 57 days of age, 200 mg/kg diet): 158 grams | average body weight/rat ([1]; 64 days of age, 200 mg/kg diet): 174 grams | average body weight/rat ([1]; 71 days of age, 200 mg/kg diet): 188 grams | average body weight/rat ([1]; 78 days of age, 200 mg/kg diet): 197 grams | average body weight/rat ([1]; 85 days of age, 200 mg/kg diet): 203 grams | average body weight/rat ([1]; 92 days of age, 200 mg/kg diet): 210 grams | average body weight/rat ([1]; 99 days of age, 200 mg/kg diet): 211 grams | average body weight/rat ([1]; 106 days of age, 200 mg/kg diet): 215 grams | average body weight/rat ([1]; 113 days of age, 200 mg/kg diet): 216 grams | average body weight/rat ([1]; 120 days of age, 200 mg/kg diet): 218 grams | average body weight/rat ([1]; 127 days of age, 200 mg/kg diet): 223 grams | average body weight/rat ([1]; 134 days of age, 200 mg/kg diet): 227 grams | average body weight/rat ([1]; 141 days of age, 200 mg/kg diet): 236 grams | average body weight/rat ([1]; 149 days of age, 200 mg/kg diet): 234 grams | average body weight/rat ([1]; 155 days of age, 200 mg/kg diet): 236 grams | average body weight/rat ([1]; 162 days of age, 200 mg/kg diet): 238 grams | average body weight/rat ([1]; 169 days of age, 200 mg/kg diet): 242 grams | average body weight/rat ([1]; 176 days of age, 200 mg/kg diet): 243 grams | average body weight/rat ([1]; 183 days of age, 200 mg/kg diet): 244 grams | EC30 (NB4 cells [2]; Homo sapiens, NB-4, 72 h, read-out: ED30 NB4 cell differentiation): > 10000 µM | EC50 (NB4 cells [2]; Homo sapiens, NB-4, 96 h, read-out: ED50 (nM) NB4): 10000 nM | NB4 cell differentiation (NB4 cells [2]; retinoid alone): no effect | growth of MNU-induced mammary cancers [3]: inhibited the growth of the MNU-induced mammary cancers | average mammary tumor weight/rat ([3]; 26 days post MNU): 0.05 grams | average mammary tumor weight/rat ([3]; 33 days post MNU): 0.05 grams | average mammary tumor weight/rat ([3]; 40 days post MNU): 0.10 grams | average mammary tumor weight/rat ([3]; 47 days post MNU): 0.30 grams | average mammary tumor weight/rat ([3]; 54 days post MNU): 0.45 grams | average mammary tumor weight/rat ([3]; 61 days post MNU): 0.55 grams | average mammary tumor weight/rat ([3]; 68 days post MNU): 0.55 grams | average mammary tumor weight/rat ([3]; 75 days post MNU): 0.55 grams | average mammary tumor weight/rat ([3]; 82 days post MNU): 0.70 grams | average mammary tumor weight/rat ([3]; 89 days post MNU): 0.90 grams | average mammary tumor weight/rat ([3]; 96 days post MNU): 1.00 grams | average mammary tumor weight/rat ([3]; 103 days post MNU): 1.35 grams | average mammary tumor weight/rat ([3]; 110 days post MNU): 1.75 grams | average mammary tumor weight/rat ([3]; 117 days post MNU): 2.00 grams | average mammary tumor weight/rat ([3]; 124 days post MNU): 2.20 grams | average mammary tumor weight/rat ([3]; 131 days post MNU): 2.35 grams | toxicity (in vivo toxicity): much less toxic than 9-cis-retinoic acid | EC50 (HL-60 cells): 8000 nM | inhibition at 0.1 µM (JMML cells; [5]): 76% | inhibition at 1 µM (JMML cells; [5]): 79% | inhibition at 0.01 µM (JMML cells; [6]): 3% | inhibition at 0.1 µM (JMML cells; [6]): 44% | inhibition at 1 µM (JMML cells; [6]): 39% | metabolism / metabolic stability (NB4 cells [4]): metabolically stable for 5 days
